# Measurements published in patent US10859569B2, “SmFRET with membrane proteins” (Cornell University, priority 2010, dated 2020).
# “Also recorded” adds a separate entry of the source.
# Key:
# [1] = system: LeuT (H7C/R86C); experiment: smFRET imaging of surface-immobilized Cy3/Cy5-labeled LeuT (H7C/R86C), intracellular gate; assay type: biochemical, Aquifex aeolicus
# Experimental: (§1) The inventors acquired fluorescence data using a prism-based TIR microscope, as described (Munro, J. B. et al., Mol. Cell 25, 505-517 (2007)). All experiments were performed in buffer containing 50 mM Tris/MES (pH 7.5), 10% glycerol, 0.02% w/v DDM, 5 mM 2-mercaptoethanol and 200 mM salt (KCl or NaCl, as specified). The inventors used an oxygen scavenging environment (1 unit per μl glucose oxidase, 8 units per μl catalase, 0.1% v/v glucose) containing 1 mM cyclooctatetraene in all experiments to minimize photobleaching (Dave, R. et al., Biophys. J. 96, 2371-2381 (2009)).
# The inventors incubated microfluidic imaging chambers passivated with a mixture of PEG and biotin-PEG (Blanchard, S. C. et al. Proc. Natl Acad. Sci. USA 101, 12893-12898 (2004)) with 0.8 μM streptavidin (Invitrogen), followed by 20 nM biotin-NTA (Biotium) charged with NiCl2. Cy3/Cy5-labeled His10-LeuT molecules (2 nM) were surface-immobilized to surface-bound Ni2+. The inventors observed no significant surface immobilization, measured as described below, in the absence of biotin-NTA.
# Cy3 fluorophores were excited by the evanescent wave generated by TIR of a single-frequency light source (Ventus 532 nm, Laser Quanta). Photons emitted from Cy3 and Cy5 were collected using a 1.2 NA 60× water-immersion objective (Nikon), and optical treatments were used to spatially separate Cy3 and Cy5 frequencies onto a cooled, back-thinned CCD (Cascade 128, Photometrics). The inventors acquired fluorescence data using MetaMorph software (Universal Imaging Corporation). The inventors corrected spectral bleed-through of Cy3 intensity on the acceptor channel by subtracting 7.5% of donor signal from the acceptor. FRET traces were calculated as: FRET=ICy5/(ICy3+ICy5), where ICy3 and ICy5 are the instantaneous Cy3 and Cy5 fluorescence intensities, respectively. Using an established procedure (Roy, et al., Nature Methods 5: 507-516 (2008)), The inventors estimated the ratio of donor and acceptor quantum yields and detection efficiencies (γ) to be close to 1; therefore, no correction was applied.
# The inventors analyzed fluorescence and FRET traces using automated analysis, in which traces were selected using algorithms implemented in MATLAB (MathWorks). Algorithms for analyzing smFRET data are found in U.S. 61/437,203, which is herein incorporated by reference in its entirety. Properties were calculated for each trace, and selected for further analysis if they met the following specific criteria: a single photobleaching event, at least 8:1 signal-to-background noise ratio (SNR), <4 donor fluorophore blinking events, a donor-to-acceptor Pearson's correlation coefficient <0.5, and a lifetime of at least 15 frames showing FRET ≥0.15. The inventors detected photobleaching events in each trace as a significant (≥3 standard deviations of background noise) drop in the median-filtered (window size of 9 frames) total fluorescence intensity (ITotal=ICy3+ICy5) without a return to the previous average level. Events in which fluorescence intensity did return were marked as blinking events. Signal-to-noise ratios are calculated as total intensity relative to the standard deviation of background noise: ITotal/stdev(ICy3)+stdev(ICy5). The inventors excluded data points corresponding to donor fluorophore dark states from calculation of the correlation coefficient.
# To simplify the presentation of FRET histograms, The inventors removed zero-FRET states following idealization of the data to a two-state model (E=0.1±0.1 and E=0.4±0.1) using a segmental k-means algorithm (Qin, F., Biophys. J. 86, 1488-1501 (2004)). Error bars in FRET histograms represent the standard deviation of 100 bootstrap samples of each set of FRET traces examined.
# The inventors estimated kinetic parameters for biotinylated H7C-R86C-LeuT samples by manually selecting traces showing at least one transition between clearly distinct states with anti-correlated changes in donor and acceptor fluorescence intensity in each transition. […]
# [2] = system: LeuT; experiment: Scintillation proximity assay (SPA) binding of 3H-alanine to purified LeuT variants; parameters: species or system Aquifex aeolicus; conditions: 50 mM Na+
# Experimental: Scintillation proximity-based binding studies. Binding of ^3H-leucine or ^3H-alanine (146 Ci/mmol and 49.4 Ci/mmol, respectively; Moravek) to purified LeuT-variants was measured with the scintillation proximity assay (SPA) as described (Shi, L. et al., Mol. Cell 30, 667-677 (2008)) with 25 ng of purified protein per assay in buffer composed of 150 mM Tris/Mes, pH 7.5/50 mM NaCl/1 mM TCEP/0.1% n-dodecyl-β-D-maltopyranoside or 50 mM Tris/Mes, pH 7.5/150 mM LiCl/1 mM TCEP/0.1% n-dodecyl-β-D-maltopyranoside. To determine the molar ratio of Leu (or Ala)-to LeuT binding samples were incubated with increasing concentrations of radioligand and measured in the SPA cpm mode of the MircoBeta™ counter (Perkin Elmer). The efficiency of detection was calculated with standard curves of known concentrations of ^3H-Leu or ^3H-Ala. The standard curves were used to transform cpm into the amount of bound substrate (Shi, L. et al., Mol. Cell 30, 667-677 (2008)). The amount of LeuT in the SPA assays was determined (Schaffner, W. et al., Anal. Biochem. 56, 502-514 (1973)). SPA-based binding studies using 2 μM [^22Na]Cl (1017 mCi/mg; Perkin Elmer) were performed in 200 Tris/Mes, pH 7.5/1 mM TCEP/0.1% n-dodecyl-β-D-maltopyranoside in the presence of 0-50 mM NaCl (equimolar replacement of Tris/Mes to obtain a total molarity of 200 mM) (Shi, L. et al., Mol. Cell 30, 667-677 (2008)). […]
# [3] = system: LeuT; experiment: 3H-Ala transport in LeuT proteoliposomes; assay type: biochemical, Aquifex aeolicus; conditions: in the presence of Li+ (150 mM)
# Experimental: Proteoliposomes were prepared as described (Shi, L. et al., Mol. Cell 30, 667-677 (2008)). The accumulation of ^3H-[…].4 Ci mmol^-1; Moravek) was measured at 23° C. in assay buffer comprised of 150/50 mM Tris/Mes (pH 8.5) and 50 mM NaCl/150 mM LiCl. The reaction was quenched by the addition of ice-cold assay buffer without radiotracer and the proteoliposomes were collected on GF75 glass fiber filters (Advantec) before the determination of the accumulated cpm by liquid scintillation counting.
# [4] = system: LeuT (K239C/H480C); experiment: smFRET imaging of extracellularly labeled LeuT K239C/H480C; assay type: biochemical, Aquifex aeolicus; conditions: 0.5 mM CMI; increased from ~0.49 without CMI
# Experimental: as §1
# (§2) The inventors incubated microfluidic imaging chambers passivated with a mixture of PEG and biotin-PEG (Blanchard, S. C. et al. Proc. Natl Acad. Sci. USA 101, 12893-12898 (2004)) with 0.8 μM streptavidin (Invitrogen), followed by 20 nM biotin-NTA (Biotium) charged with NiCl2. […] The inventors observed no significant surface immobilization, measured as described below, in the absence of biotin-NTA.
# (§3) Cy3 fluorophores were excited by the evanescent wave generated by TIR of a single-frequency light source (Ventus 532 nm, Laser Quanta). […] The inventors acquired fluorescence data using MetaMorph software (Universal Imaging Corporation). […] FRET traces were calculated as: FRET=ICy5/(ICy3+ICy5), where ICy3 and ICy5 are the instantaneous Cy3 and Cy5 fluorescence intensities, respectively. […]
# [5] = system: LeuT (H7C/T515C); experiment: smFRET imaging of Cy3/Cy5-labeled LeuT H7C/T515C; assay type: biochemical, Aquifex aeolicus; conditions: saturating Na+ 200 mM
# Experimental: as §1, §2, §3
# [6] = system: LeuT; conditions: read-out: half-maximum effective concentration (EC50) of Na+ for stimulating binding and transport; cited from earlier work
# [7] = target: Y335A dopamine transporter (Homo sapiens, UniProt Q01959, Y335A); conditions: Y335A dopamine transporter mutant; cited from earlier work
# Sequence of Y335A dopamine transporter (Q01959 whole entry Y335A): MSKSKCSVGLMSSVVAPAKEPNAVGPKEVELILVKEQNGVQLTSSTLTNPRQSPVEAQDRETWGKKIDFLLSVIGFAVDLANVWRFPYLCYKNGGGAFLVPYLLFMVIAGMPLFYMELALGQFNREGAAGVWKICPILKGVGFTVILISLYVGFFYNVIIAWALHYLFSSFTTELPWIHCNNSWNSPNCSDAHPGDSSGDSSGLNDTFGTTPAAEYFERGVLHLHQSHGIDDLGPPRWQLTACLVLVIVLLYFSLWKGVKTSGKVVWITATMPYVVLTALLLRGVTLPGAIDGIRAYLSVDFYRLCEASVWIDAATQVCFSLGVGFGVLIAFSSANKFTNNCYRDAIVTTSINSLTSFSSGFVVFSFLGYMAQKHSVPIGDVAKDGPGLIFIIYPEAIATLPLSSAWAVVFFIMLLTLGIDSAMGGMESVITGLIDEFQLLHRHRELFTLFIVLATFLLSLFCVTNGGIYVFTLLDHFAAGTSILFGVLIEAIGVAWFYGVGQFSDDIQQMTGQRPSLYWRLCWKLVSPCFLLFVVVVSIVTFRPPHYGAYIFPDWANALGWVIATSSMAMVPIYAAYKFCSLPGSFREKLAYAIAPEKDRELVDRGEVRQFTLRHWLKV
# [8] = 10 mM Na+ and 250 μM Ala, 0.1 mM CMI or 35 mM OG
structure (smiles),measurement,setting,value
"CCCCCCCCO[C@@H]1O[C@H](CO)[C@@H](O)[C@H](O)[C@H]1O [OG, n-octyl-β-D-glucopyranoside]",effect on intracellular gating dynamics,[1]; [8],inhibited intracellular gating dynamics
"C[C@H](N)C(=O)O [Ala, L-alanine]",Ala binding to the S2 site,[2]; F253A mutant,bound stoichiometrically
same,Ala binding to the S1 site,[2]; L400S mutant,stoichiometric
same,effect on FRET distribution,"[1]; 2 mM Na+, increasing Ala concentrations",did not shift the FRET distribution toward the closed state
same,enhancement of transition rates between inward-open and inward-closed states,"[1]; 2 mM Na+, as much as",~4 fold
same,effect on lifetimes of inward-open or inward-closed states,"[1]; Ala alone, nominal absence of Na+",not significantly affected
same,effect on intracellular gating dynamics,"[1]; F253A (S1 site) mutant, 10 mM Na+, 250 μM Ala",failed to increase intracellular gating dynamics
same,effect on intracellular gating dynamics,"[1]; L400S (S2 site) mutant, 10 mM Na+, 250 μM Ala",no increase in intracellular gating dynamics was observed
same,effect on intracellular gating dynamics,"[1]; Li+ in place of Na+ (40 mM Li+), 250 μM Ala",failed to accelerate intracellular gating dynamics
same,"reduction in the rate of gate opening, kclosed-open","[1]; Li+ in place of Na+, 250 μM Ala",~2 fold
same,lowering of activation barrier between open and closed states (ΔΔG),"[1]; as much as, conditions of the experiment",~0.72 kcal/mol
same,substrate transport,[3],not observed
"CC(C)C[C@H](N)C(=O)O [Leu, L-leucine]",further changes in FRET upon addition of leucine,[1]; 20 μM leucine at 200 mM Na+,did not observe further changes in FRET
same,stabilization of closed intracellular gate state,"[1]; 2 mM Na+, Leu titration",~3.5 fold
same,effect of leucine binding on low-/high-FRET populations,"[1]; 5 mM Na+, 0.2-20 μM leucine",redistributed the two populations in a concentration-dependent fashion in favour of higher-FRET configurations
same,FRET value of high-FRET configurations reached by leucine-dependent isomerization,"[1]; LeuT-R5A, 7/86 pair, 200 mM NaCl and 20 μM leucine",~0.77
same,raising of energy barrier to motion,"[1]; as much as, similar to Na+ (50 mM) alone",~0.96 kcal/mol
"CN(C)CCCN1c2ccccc2CCc2ccc(Cl)cc21 [CMI, clomipramine]",FRET between K239C/H480C labels with inhibitor bound,[4],~0.53
same,FRET value of stabilized high-FRET state,"[1]; 0.5 mM CMI, 200 mM KCl, wild-type H7C/R86C",~0.69
same,effect on intracellular gating dynamics,[1]; [8],essentially eliminated the occurrence of intracellular gate opening; also recorded: inhibits these conformational dynamics
[Na+] [Na^+],FRET value of stabilized higher-FRET state,[5],~0.73
same,EC50,[6],~10 mM
same,preferential stabilization of the inward-closed state,[1]; Na+ titration,~7 fold
same,EC50,"[1]; hidden Markov modeling of Na+ titration, read-out: EC50 for altering distribution of low- and high-FRET LeuT conformations",10.9 mM
same,dwell time of high FRET state,"[1]; high Na+ concentrations, limited by photobleaching",> 76 s
same,FRET value of stabilized higher-FRET state,"[1]; saturating Na+ 200 mM, H7C/R86C",~0.77
[Zn] [zinc],effect on transport,[7],markedly enhances transport
